Read-outs that look alike come from different tables or passages of the source.
Columns and labels:
[1] = molecular target: HCV NS3/4A protease genotype 1b (Hepatitis C virus genotype 1b, UniProt P26663); experiment: HCV NS3/4A protease time-resolved fluorescence (TRF) assay, Ki against genotype 1b; type: biochemical; conditions: IC50 [gt-1b] (nM), NS3/4A genotype 1b, enzyme 0.2 nM
Outline: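 Ki values come from IC50 fits corrected for substrate concentration and KM. The time-resolved fluorescence protease reaction used 25 nM peptide substrate, 2.5 h, room temperature, pH 7.5 HEPES buffer, after 30 min enzyme–inhibitor preincubation.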

HCV genotype 1b replicon = experiment: HCV replicon assay, genotype 1b replicon EC50; type: cell-based, Hepatitis C virus; conditions: genotype 1b replicon, read-out: EC50 [gt-1b]
Outline: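 Assay format: compound titration on stable replicon cells, no G418 during treatment, 24 to 48 hours. Lysates were assayed for replicon RNA (hybridization/protection or TaqMan) or luciferase; EC50 fitted to four parameters against DMSO.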

Sequence of HCV NS3/4A protease genotype 1b (P26663 1027-1657): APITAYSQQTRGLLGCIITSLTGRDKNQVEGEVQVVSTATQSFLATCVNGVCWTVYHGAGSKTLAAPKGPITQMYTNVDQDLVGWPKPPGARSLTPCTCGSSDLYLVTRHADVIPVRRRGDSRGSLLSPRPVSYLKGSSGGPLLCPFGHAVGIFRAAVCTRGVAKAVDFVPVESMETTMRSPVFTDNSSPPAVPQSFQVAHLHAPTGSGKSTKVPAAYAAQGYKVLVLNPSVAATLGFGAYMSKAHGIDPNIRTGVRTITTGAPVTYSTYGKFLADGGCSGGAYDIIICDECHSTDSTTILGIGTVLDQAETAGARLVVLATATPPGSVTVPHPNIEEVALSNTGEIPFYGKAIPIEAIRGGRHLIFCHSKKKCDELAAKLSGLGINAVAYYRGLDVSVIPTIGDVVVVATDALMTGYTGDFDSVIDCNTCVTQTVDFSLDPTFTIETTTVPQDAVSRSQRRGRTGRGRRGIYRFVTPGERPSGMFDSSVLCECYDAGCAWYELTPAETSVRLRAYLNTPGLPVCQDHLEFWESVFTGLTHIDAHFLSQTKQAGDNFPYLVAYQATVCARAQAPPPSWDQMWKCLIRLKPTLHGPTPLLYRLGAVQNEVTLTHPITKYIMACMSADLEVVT
Sequence of HCV NS3/4A protease genotype 1b (P26663 1658-1711): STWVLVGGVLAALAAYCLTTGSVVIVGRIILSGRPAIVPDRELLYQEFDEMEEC

Structure (SMILES) | IC50 ([1]; K+ salt) | EC50 (HCV genotype 1b replicon; Hepatitis C virus, K+ salt) | IC50 [1] | EC50 (HCV genotype 1b replicon; Hepatitis C virus) | EC50 (HCV genotype 1b replicon)
Cc1nc2ccc(OC(F)F)cc2c2c1O[C@]1(CC2)C[C@H]2C(=O)N[C@]3(C(=O)NS(=O)(=O)C4(C)CC4)C[C@H]3/C=C\CCCCC[C@H](NC(=O)OC(C)(C)C(F)(F)F)C(=O)N2C1 [Example 310, 1,1,1-trifluoro-2-methylpropan-2-yl [(2R,6S,12Z,13aS,14aR,16aS)-9′-(difluoromethoxy)-5′-methyl-14a-{[(1-methylcyclopropyl)sulfonyl]carbamoyl}-5,16-dioxo-1,1′,2′,5,6,7,8,9,10,11,13a,14,14a,15,16,16a-hexadecahydrospiro[cyclopropa[e]pyrrolo[1,2-a][1,4]diazacyclopentadecine-2,3′-pyrano[2,3-c]quinolin]-6-yl]carbamate] | 0.008 nM | 5.66 nM | – | – | –
CC(C)(C)COC(=O)N[C@H]1CCCCC/C=C\[C@@H]2C[C@@]2(C(=O)NS(=O)(=O)C2(C)CC2)NC(=O)[C@@H]2C[C@]3(CCc4c(c(C(F)F)nc5ccccc45)O3)CN2C1=O [Example 311, 2,2-dimethylpropyl [(2R,6S,12Z,13aS,14aR,16aS)-5′-(difluoromethyl)-14a-{[(1-methylcyclopropyl)sulfonyl]carbamoyl}-5,16-dioxo-1,1′,2′,5,6,7,8,9,10,11,13a,14,14a,15,16,16a-hexadecahydrospiro[cyclopropa[e]pyrrolo[1,2-a][1,4]diazacyclopentadecine-2,3′-pyrano[2,3-c]quinolin]-6-yl]carbamate] | – | – | 0.008 nM | 1.23 nM | –
CCc1nc2ccc(OC)cc2c2c1O[C@]1(CC2)C[C@H]2C(=O)N[C@]3(C(=O)NS(=O)(=O)C4(C)CC4)C[C@H]3/C=C\CCCCC[C@H](NC(=O)OC(C)(C)C)C(=O)N2C1 [Example 312, tert-butyl [(2R,6S,12Z,13aS,14aR,16aS)-5′-ethyl-9′-methoxy-14a-{[(1-methylcyclopropyl)sulfonyl]carbamoyl}-5,16-dioxo-1,1′,2′,5,6,7,8,9,10,11,13a,14,14a,15,16,16a-hexadecahydrospiro[cyclopropa[e]pyrrolo[1,2-a][1,4]diazacyclopentadecine-2,3′-pyrano[2,3-c]quinolin]-6-yl]carbamate] | – | – | 0.009 nM | 3.56 nM | –
CCc1ccc2nc(C)c3c(c2c1)CC[C@]1(C[C@H]2C(=O)N[C@]4(C(=O)NS(=O)(=O)C5(C)CC5)C[C@H]4/C=C\CCCCC[C@H](NC(=O)OC(C)(C)C)C(=O)N2C1)O3 [Example 313, tert-butyl [(2R,6S,12Z,13aS,14aR,16aS)-9′-ethyl-5′-methyl-14a-{[(1-methylcyclopropyl)sulfonyl]carbamoyl}-5,16-dioxo-1,1′,2′,5,6,7,8,9,10,11,13a,14,14a,15,16,16a-hexadecahydrospiro[cyclopropa[e]pyrrolo[1,2-a][1,4]diazacyclopentadecine-2,3′-pyrano[2,3-c]quinolin]-6-yl]carbamate] | – | – | 0.016 nM | 2.87 nM | –
CCc1ccc2nc(C)c3c(c2c1)CC[C@]1(C[C@H]2C(=O)N[C@]4(C(=O)NS(=O)(=O)C5(C)CC5)C[C@H]4/C=C\CCCCC[C@H](NC(=O)OC(C)(C)C(F)(F)F)C(=O)N2C1)O3 [Example 314, 1,1,1-trifluoro-2-methylpropan-2-yl [(2R,6S,12Z,13aS,14aR,16aS)-9′-ethyl-5′-methyl-14a-{[(1-methylcyclopropyl)sulfonyl]carbamoyl}-5,16-dioxo-1,1′,2′,5,6,7,8,9,10,11,13a,14,14a,15,16,16a-hexadecahydrospiro[cyclopropa[e]pyrrolo[1,2-a][1,4]diazacyclopentadecine-2,3′-pyrano[2,3-c]quinolin]-6-yl]carbamate] | – | – | 0.013 nM | 8.74 nM | –
CC(C)OC(=O)N[C@H]1CCCCC/C=C\[C@@H]2C[C@@]2(C(=O)NS(=O)(=O)C2(C)CC2)NC(=O)[C@@H]2C[C@]3(CCc4c(c(C(F)F)nc5ccccc45)O3)CN2C1=O [Example 317, propan-2-yl [(2R,6S,12Z,13aS,14aR,16aS)-5′-(difluoromethyl)-14a-{[(1-methylcyclopropyl)sulfonyl]carbamoyl}-5,16-dioxo-1,1′,2′,5,6,7,8,9,10,11,13a,14,14a,15,16,16a-hexadecahydrospiro[cyclopropa[e]pyrrolo[1,2-a][1,4]diazacyclopentadecine-2,3′-pyrano[2,3-c]quinolin]-6-yl]carbamate] | – | – | 0.023 nM | 3.25 nM | –
COc1ccc2nc(C)c3c(c2n1)CC[C@]1(C[C@H]2C(=O)N[C@]4(C(=O)NS(=O)(=O)C5(C)CC5)C[C@H]4/C=C\CCCCC[C@H](NC(=O)OC(C)(C)C(F)(F)F)C(=O)N2C1)O3 [Example 318, 1,1,1-trifluoro-2-methylpropan-2-yl [(2R,6S,12Z,13aS,14aR,16aS)-2′-methoxy-6′-methyl-14a-{[(1-methylcyclopropyl)sulfonyl]carbamoyl}-5,16-dioxo-1,5,6,7,8,9,9′,10,10′,11,13a,14,14a,15,16,16a-hexadecahydrospiro[cyclopropa[e]pyrrolo[1,2-a][1,4]diazacyclopentadecine-2,8′-pyrano[2,3-c][1,5]naphthyridin]-6-yl]carbamate] | – | – | 0.013 nM | 4.99 nM | –
Cc1nc2ccc(C(F)(F)F)cc2c2c1O[C@]1(CC2)C[C@H]2C(=O)N[C@]3(C(=O)NS(=O)(=O)C4(C)CC4)C[C@H]3/C=C\CCCCC[C@H](NC(=O)OC(C)(C)C(F)(F)F)C(=O)N2C1 [Example 319, 1,1,1-trifluoro-2-methylpropan-2-yl [(2R,6S,12Z,13aS,14aR,16aS)-5′-methyl-14a-{[(1-methylcyclopropyl)sulfonyl]carbamoyl}-5,16-dioxo-9′-(trifluoromethyl)-1,1′,2′,5,6,7,8,9,10,11,13a,14,14a,15,16,16a-hexadecahydrospiro[cyclopropa[e]pyrrolo[1,2-a][1,4]diazacyclopentadecine-2,3′-pyrano[2,3-c]quinolin]-6-yl]carbamate] | 0.044 nM | 17.8 nM | – | – | –
Cc1nc2ccccc2c2c1O[C@]1(CC2)C[C@H]2C(=O)N[C@]3(C(=O)NS(=O)(=O)C4(C)CC4)C[C@H]3/C=C\CCCCC[C@H](NC(=O)OC3CC(F)(F)C3(F)F)C(=O)N2C1 (stereo partly drawn) [Example 320, 2,2,3,3-tetrafluorocyclobutyl [(2R,6S,12Z,13aS,14aR,16aS)-5′-methyl-14a-{[(1-methylcyclopropyl)sulfonyl]carbamoyl}-5,16-dioxo-1,1′,2′,5,6,7,8,9,10,11,13a,14,14a,15,16,16a-hexadecahydrospiro[cyclopropa[e]pyrrolo[1,2-a][1,4]diazacyclopentadecine-2,3′-pyrano[2,3-c]quinolin]-6-yl]carbamate] | – | – | 0.013 nM | 4.44 nM | –
Cc1nc2ccccc2c2c1O[C@]1(CC2)C[C@H]2C(=O)N[C@]3(C(=O)NS(=O)(=O)C4(C)CC4)C[C@H]3/C=C\CCCCC[C@H](NC(=O)OC3CC(F)(F)C3(F)F)C(=O)N2C1 (stereo partly drawn) [Example 321, 2,2,3,3-tetrafluorocyclobutyl [(2R,6S,12Z,13aS,14aR,16aS)-5′-methyl-14a-{[(1-methylcyclopropyl)sulfonyl]carbamoyl}-5,16-dioxo-1,1′,2′,5,6,7,8,9,10,11,13a,14,14a,15,16,16a-hexadecahydrospiro[cyclopropa[e]pyrrolo[1,2-a][1,4]diazacyclopentadecine-2,3′-pyrano[2,3-c]quinolin]-6-yl]carbamate] | – | – | 0.03 nM | – | 7.16 nM
CC(C)(OC(=O)N[C@H]1CCCCC/C=C\[C@@H]2C[C@@]2(C(=O)NS(=O)(=O)C2(C)CC2)NC(=O)[C@@H]2C[C@]3(CCc4c(c(C5CC5)nc5ccc6c(c45)OCO6)O3)CN2C1=O)C(F)(F)F [Example 322, 1,1,1-trifluoro-2-methylpropan-2-yl [(2R,6S,12Z,13aS,14aR,16aS)-7′-cyclopropyl-14a-{[(1-methylcyclopropyl)sulfonyl]carbamoyl}-5,16-dioxo-1,5,6,7,8,9,10,10′,11,11′,13a,14,14a,15,16,16a-hexadecahydrospiro[cyclopropa[e]pyrrolo[1,2-a][1,4]diazacyclopentadecine-2,9′-[1,3]dioxolo[4,5-f]pyrano[2,3-c]quinolin]-6-yl]carbamate] | – | – | 0.073 nM | 6.92 nM | –
CC1(S(=O)(=O)NC(=O)[C@@]23C[C@H]2/C=C\CCCCC[C@H](NC(=O)OC2CCCC2)C(=O)N2C[C@@]4(CCc5c(c(C6CC6)nc6ccc7c(c56)OCO7)O4)C[C@H]2C(=O)N3)CC1 [Example 323, cyclopentyl [(2R,6S,12Z,13aS,14aR,16aS)-7′-cyclopropyl-14a-{[(1-methylcyclopropyl)sulfonyl]carbamoyl}-5,16-dioxo-1,5,6,7,8,9,10,10′,11,11′,13a,14,14a,15,16,16a-hexadecahydrospiro[cyclopropa[e]pyrrolo[1,2-a][1,4]diazacyclopentadecine-2,9′-[1,3]dioxolo[4,5-f]pyrano[2,3-c]quinolin]-6-yl]carbamate] | – | – | 0.012 nM | 11.4 nM | –
CC(C)(C)COC(=O)N[C@H]1CCCCC/C=C\[C@@H]2C[C@@]2(C(=O)NS(=O)(=O)C2(C)CC2)NC(=O)[C@@H]2C[C@]3(CCc4c(c(C5CC5)nc5ccc6c(c45)OCO6)O3)CN2C1=O [Example 324, 2,2-dimethylpropyl [(2R,6S,12Z,13aS,14aR,16aS)-7′-cyclopropyl-14a-{[(1-methylcyclopropyl)sulfonyl]carbamoyl}-5,16-dioxo-1,5,6,7,8,9,10,10′,11,11′,13a,14,14a,15,16,16a-hexadecahydrospiro[cyclopropa[e]pyrrolo[1,2-a][1,4]diazacyclopentadecine-2,9′-[1,3]dioxolo[4,5-f]pyrano[2,3-c]quinolin]-6-yl]carbamate] | – | – | 0.022 nM | 3.62 nM | –
